Eight compounds from patent US6479515B1, “Heterocyclic benzenesulphonamide compounds as bradykinine antagonists” (Fournier Industrie et Sante, priority 1999, dated 2002) can be followed below.

Where a name gives a salt, the structure may show the parent alone. Read-outs that look alike come from different tables or passages of the source.

One assay concerns the target T1, bradykinin B2 receptor (Homo sapiens, UniProt P30411).
T1 construct: from tissue; host or cells: isolated human umbilical vein
T1 sequence (P30411 1-391): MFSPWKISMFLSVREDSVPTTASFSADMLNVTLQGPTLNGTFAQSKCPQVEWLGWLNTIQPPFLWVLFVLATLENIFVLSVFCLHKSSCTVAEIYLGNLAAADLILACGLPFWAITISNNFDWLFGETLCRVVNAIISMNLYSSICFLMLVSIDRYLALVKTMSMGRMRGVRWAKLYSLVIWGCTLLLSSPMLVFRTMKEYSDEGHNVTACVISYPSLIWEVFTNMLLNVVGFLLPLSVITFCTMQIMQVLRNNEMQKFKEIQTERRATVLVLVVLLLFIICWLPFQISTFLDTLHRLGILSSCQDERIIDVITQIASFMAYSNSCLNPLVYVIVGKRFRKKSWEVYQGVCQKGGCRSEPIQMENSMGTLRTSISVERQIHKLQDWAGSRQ
The assay can be described thus: inhibition of the contraction of the isolated human umbilical vein in the presence of bradykinin. The class given is cell-based. From the text: This antagonist character is expressed by the value pA2, calculated according to a biological test employed in order to measure the inhibition of the contraction of the isolated human umbilical vein by the compounds according to the invention in the presence of bradykinin. The test procedure and the method of calculation of pA2 are described in the articles of D. Pruneau et al. published in Br. J. Pharmacol. 1998, 125, p 365-372 and J L. Paquet et al. Br. J. Pharmacol. 1999, 126 (in print).

Another assay concerns the target T2, human B2 receptor (Homo sapiens, UniProt P30411).
T2 construct: expressed in transfected cells; host or cells: CHO cells (membranes)
T2 sequence (P30411 1-391): T1 sequence (P30411 1-391)
The assay can be described thus: competitive binding test on CHO cell membranes expressing the human B2 receptor using [3H]-bradykinin as ligand. How it is done:
The activity of the products according to the invention was evaluated, according to a first aspect, as a function of their aptitude to bind to the bradykinin B2 receptors. […] It is likewise known that bradykinin is amongst one of the most powerful algesic agents known. The mode of action of kinins and more particularly of bradykinin makes a coupling of the peptides to the two types of receptors called B1 and B2 respectively take place. The B2 receptor belongs to the large family of receptors with seven transmembrane domains coupled to the G proteins and seems to be more particularly involved in the field of the pathologies mentioned above. This is the reason why the products of the invention, which have the property of being able to bind to the B2 receptor, inhibit the binding of bradykinin and, consequently, suppress its harmful activity. The test employed in order to measure this property is a competitive binding test on CHO cell membranes expressing the human B2 receptor using bradykinin labelled with tritium ([^3H]-bradykinin) as ligand.
The results are expressed by the Ki value, as calculated according to the recommended method with the description of the test employed and described according to D. Pruneau et al., in Br. J. Pharmacol. 1998, 125 p 365-372.

The mark [1] stands for this setting: isolated human umbilical vein, contraction in the presence of bradykinin.
Where [2] appears, read: isolated human umbilical vein, contraction in the presence of bradykinin, read-out: pA2 (converted).

One may read the Ki as a dissociation constant, usually derived from enzyme kinetics or from competition with a known ligand. Low values mean a stronger hold on the target, high ones a looser hold on the target. What is called pA2 is the negative logarithm of the molar antagonist concentration that doubles the agonist concentration needed for the same response.

On to `Cc1cc(-n2cncn2)c2cccc(OCc3c(Cl)ccc(S(=O)(=O)N4CCC[C@H]4C(=O)NCCN(C)C)c3Cl)c2n1` [Example 83, 1-[[2,4-Dichloro-3-[[[2-methyl-4-(1H-1,2,4-triazol-1-yl)-8-quinolinyl]oxy]-methyl]phenyl]sulphonyl]-N-[2-(dimethylamino)ethyl]-2(S)-pyrrolidine-carboxamide, tartrate], for which the Kb on bradykinin B2 receptor is 12.6 nM. On human B2 receptor, this compound came in with an inhibition constant (Ki) of 14 nM.

For the compound `Cc1cc(-n2ccnc2)c2cccc(OCc3c(Cl)ccc(S(=O)(=O)N4CCC[C@H]4C(=O)NCC4CCNCC4)c3Cl)c2n1` [Example 10, 1-[[2,4-Dichloro-3-[[[4-(1H-imidazol-1-yl)-2-methyl-8-quinolinyl]oxy]methyl]-phenyl]sulphonyl]-N-(4-piperidinylmethyl)-2(S)-pyrrolidinecarboxamide, ditartrate], the Kb on bradykinin B2 receptor was 3.16 nM. In addition, the Ki at human B2 receptor was determined as 1 nM.

Turning to “1-[[2,4-Dichloro-3-[[2(L)-[[4-(2-pyridinyl)-1-piperazinyl]carbonyl]-1-pyrrolidinyl]sulphonyl]-N-methyl-N-[3-[[3-(hydroxy)propyl]-(methyl)amino]propyl]-2(S)-pyrrolidinecarboxamide, methanesulphonate [Example 105]”, at bradykinin B2 receptor (setting [1]), the pA2 is 8.3. Besides, at human B2 receptor, the affinity, expressed as Ki, was 7.7 nM.

“1-[[2,4-Dichloro-3-[[[4-(1H-imidazol-1-yl)-2-methyl-8-quinolinyl]oxy]methyl]-phenyl]sulphonyl]-N-[3-(dimethylamino)propyl]-N-methyl-2(S)-pyrrolidine-carboxamide, hemisulphate [Example 61]”: the pA2 on bradykinin B2 receptor (setting [1]) is recorded as 8.1. On human B2 receptor, this compound showed a Ki of 21 nM.

For `Cc1cc(-n2cncn2)c2cccc(OCc3c(Cl)ccc(S(=O)(=O)N4CCC[C@H]4C(=O)NCCCN4CCCC4)c3Cl)c2n1` [Example 87, 1-[[2,4-Dichloro-3-[[[2-methyl-4-(1H-1,2,4-triazol-1-yl)-8-quinolinyl]oxy]-methyl]phenyl]sulphonyl]-N-[3-(1-pyrrolidinyl)propyl]-2(S)-pyrrolidine-carboxamide, methanesulphonate], the Kb at bradykinin B2 receptor (setting [2]) was 6.31 nM. The Ki at human B2 receptor was 15 nM.

Take `Cc1cc(-n2ccnc2)c2cccc(OCc3c(Cl)ccc(S(=O)(=O)N4C[C@H](O)C[C@H]4C(=O)NCC4CCNCC4)c3Cl)c2n1` [Example 42, 1-[[2,4-Dichloro-3-[[[4-(1H-imidazol-1-yl)-2-methyl-8-quinolinyl]oxy]methyl]-phenyl]sulphonyl]-4(R)-hydroxy-N-(4-piperidinemethyl)-2(S)-pyrrolidine-carboxamide, ditartrate]: at bradykinin B2 receptor (setting [2]), the Kb is 5.01 nM. On human B2 receptor, this compound registered an inhibition constant (Ki) of 77 nM.

Turning to `Cc1cc(-n2ccnc2)c2cccc(OCc3c(Cl)ccc(S(=O)(=O)N4CCC[C@H]4C(=O)NCC4CCN(CCOCCO)CC4)c3Cl)c2n1` [Example 12, 1-[[2,4-Dichloro-3-[[[4-(1H-imidazol-1-yl)-2-methyl-8-quinolinyl]oxy]methyl]-phenyl]sulphonyl]-N-[[1-[2-(2-hydroxyethoxy)ethyl]-4-piperidinyl]methyl]-2(S)-pyrrolidinecarboxamide, tartrate], the Kb on bradykinin B2 receptor was 2 nM. The compound also came in with an inhibition constant (Ki) at human B2 receptor of 0.47 nM.

On to “1-[[2,4-Dichloro-3-[[[4-(1H-imidazol-1-yl)-2-methyl-8-quinolinyl]oxy]methyl]-phenyl]sulphonyl]-N-[2-(4-morpholinyl)ethyl]-2(S)-pyrrolidinecarboxamide, hemisulphate [Example 48]”, for which the pA2 on bradykinin B2 receptor (setting [1]) was determined as 8.5. The compound further returned an inhibition constant Ki at human B2 receptor of 32 nM.
